Test results taken from US20250073184A1, “CANNABIGEROQUINONE COMPOUNDS, COMPOSITIONS INCLUDING SUCH COMPOUNDS, AND USES OF SUCH COMPOUNDS AND COMPOSITIONS” (Juva Life, Inc., priority 2021, published 2025).

Tests used:
[1] = molecular target: T1, Human COX2 (Homo sapiens, UniProt P35354); experiment: Biochemical COX-2 assay; conditions: recombinant enzyme; read-out: Inhibitory Activity EC50, Cox2
T1 construct: 1-604 (end); purchased BPS Biosciences 71111; host or cells: baculovirus infected Sf9 cells
T1 sequence (P35354 18-604): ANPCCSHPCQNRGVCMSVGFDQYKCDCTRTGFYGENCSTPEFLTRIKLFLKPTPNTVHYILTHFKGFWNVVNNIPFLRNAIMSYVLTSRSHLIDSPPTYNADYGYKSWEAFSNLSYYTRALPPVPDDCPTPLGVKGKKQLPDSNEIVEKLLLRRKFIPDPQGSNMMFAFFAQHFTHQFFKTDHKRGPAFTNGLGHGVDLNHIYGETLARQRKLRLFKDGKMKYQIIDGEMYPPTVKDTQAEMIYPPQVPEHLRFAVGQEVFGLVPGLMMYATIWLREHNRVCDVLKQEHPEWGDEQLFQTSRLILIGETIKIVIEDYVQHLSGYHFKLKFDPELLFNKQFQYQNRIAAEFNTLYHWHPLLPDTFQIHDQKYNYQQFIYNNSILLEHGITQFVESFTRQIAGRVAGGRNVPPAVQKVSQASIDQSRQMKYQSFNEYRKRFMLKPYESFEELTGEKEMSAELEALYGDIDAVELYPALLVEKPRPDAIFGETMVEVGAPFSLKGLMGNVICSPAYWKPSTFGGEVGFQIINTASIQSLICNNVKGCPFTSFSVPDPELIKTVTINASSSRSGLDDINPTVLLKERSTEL
Text: • Human COX2, GenBank Accession No. NM_000963, a.a. 1-604 (end), with C-terminal FLAG-His-tag, MW=71 kDa, expressed in a baculovirus infected Sf9 cell expression system was obtained from BPS Biosciences (Catalog #71111) • Cyclooxygenase (COX) Activity Assay Kit (Fluorometric) was obtained from Abcam (Catalog #ab204699) • Other reagents: black 384 well assay plates were obtained from Corning (Cat #3820). • Equipment: Synergy Neo2 Multi-mode plate reader (Biotek), Labcyte 550 acoustic dispenser (Labcyte), Biomek FX robotic dispenser (Beckman Coulter), Sorvall Legend RT centrifuge (Kendro).
Serially diluted compounds were prepared in DMSO in Echo qualified 384 well plates. An assay buffer was then prepared, and supplemented with Cox cofactor and fluorogenic probe as described in the Cox activity kit manual. […]
Serially diluted compounds were added to the assay plate by acoustic dispensing (Labcyte 550). […] Afterwards, the plate was read on a Synergy Neo2 in fluorescence mode: excitation 535 nm, emission 590 nm. % inhibition of the compound was calculated using following equation:
where RFU100% is fluorescence in control samples without compound, RFU0% is fluorescence in control samples without COX-2, and RFU compound fluorescence in a sample with compound.
The calculated %-Inh values were then plotted against compound concentration. […]

[2] = system: SK-MEL-28 melanoma cell line; experiment: SK-MEL-28 cell line toxicity (Cell titer Glo viability); type: cell-based; conditions: SK-MEL-28, 72 h
Experimental: (§1) Culture medium were purchased from ATCC, USA.
• General cell culture reagents and plastic. • 384-Well Flat white Poly-styrene TC-Treated Microplates (Corning). • 384 well poly-propylene plates (acoustic grade, Labcyte) for compound dilution. • Cell titer Glo luminescent Cell Viability reagent (Cat #G7571, Promega).
90 nL DMSO is added to control wells. […] Luminescence was then recorded using Synergy Neo2Multi-mode Reader.

[3] = system: PANC-1 pancreatic carcinoma cell line; experiment: PANC-1 cell line toxicity (Cell titer Glo viability); conditions: PANC-1, 72 h
Experimental: The half maximal inhibition concentration (IC50) for each compound was determined by harvesting cells during the logarithmic growth period and then counting cell number using hemocytometer. The cell concentrations were adjusted to 5×10^4 cells/mL with respective culture medium. 30 μL of cell suspensions were added to three 384-well plates with the final cell density of 1.5×10^3 cells/well. Then, using a Biomek FX, test articles were serially diluted (10 mM top, 3× dilution intervals) along with a reference inhibitor (1 mM top, 3× dilution intervals) in acoustic grade Labcyte plate. Then, using an acoustic dispenser (Labcyte550), compounds were added as serially diluted to plate with cells: 90 nL of serially diluted compounds per well. 90 nL DMSO is added to control wells. Test plates were incubated for 72 h in the humidified incubator at 37° C. with 5% CO2. 25 μL of reconstituted Cell titer Glo reagent was added to each well. Each test plate was then incubated for 20 min at room temperature. Luminescence was then recorded using Synergy Neo2Multi-mode Reader.
In order to calculate intersect IC50, a dose-response curve was fitted using nonlinear regression model with a sigmoidal dose response.
The formula for calculating surviving rate is shown below, and the intersect IC50 was calculated according to the dose-response curve generated by the software:
as §1

## Cannabigerol Quinone [Formula VI]
[1]
  EC50: 60.6 µM
[2]
  EC50: > 30 µM
  higher tolerance of SK-MEL-28 cells to the compound than staurosporine: more than 250 fold
[2]; 0.00017 uM
  Cell Viability (%): 100.0%
[2]; 0.00051 uM
  Cell Viability (%): 97.2%
[2]; 0.0015 uM
  Cell Viability (%): 96.2%
[2]; 0.0046 uM
  Cell Viability (%): 101.0%
[2]; 0.014 uM
  Cell Viability (%): 98.5%
[2]; 0.041 uM
  Cell Viability (%): 99.9%
[2]; 0.12 uM
  Cell Viability (%): 100.0%
[2]; 0.37 uM
  Cell Viability (%): 101.0%
[2]; 1.1 uM
  Cell Viability (%): 99.9%
[2]; 3.3 uM
  Cell Viability (%): 104.0%
[2]; 10 uM
  Cell Viability (%): 99.0%
[2]; 30 uM
  Cell Viability (%): 83.2%
[3]
  higher tolerance of PANG-1 cells to the compound than staurosporine: more than 750 fold
[3]; 0.00017 uM
  Cell Viability (%): 106.6%
[3]; 0.00051 uM
  Cell Viability (%): 107.5%
[3]; 0.0015 uM
  Cell Viability (%): 100.4%
[3]; 0.0046 uM
  Cell Viability (%): 104.2%
[3]; 0.014 uM
  Cell Viability (%): 100.2%
[3]; 0.041 uM
  Cell Viability (%): 99.9%
[3]; 0.12 uM
  Cell Viability (%): 99.2%
[3]; 0.37 uM
  Cell Viability (%): 98.6%
[3]; 1.1 uM
  Cell Viability (%): 102.6%
[3]; 3.3 uM
  Cell Viability (%): 95.7%
[3]; 10 uM
  Cell Viability (%): 99.4%
[3]; 30 uM
  Cell Viability (%): 99.8%
[3]; read-out: EC50 (cell viability)
  EC50: > 30 µM
